Reference: patent publication US11208412B2 (DAEGU-GYEONGBUK MEDICAL INNOVATION FOUNDATION, priority 2017, dated 2021)

What was measured:
Assay in all cases: Kinase selectivity, DiscoverX scanMAX Kinase assay panel (% control)
Type in all cases: binding
[1] = biological target: T1, kinases of the scanMAX Kinase assay panel (Homo sapiens, UniProt O60331); conditions: PIP5K1C; 1 uM
T1 construct: purchased DiscoverX Co. (contract measurement) scanMAX Kinase assay panel
Method in brief: (§1)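 Compounds tested at 1 uM against the scanMAX kinase panel. Signal expressed as % control = (compound − positive control)/(DMSO negative control − positive control) × 100, where positive control = 0% and DMSO = 100%; below 35% counted as activity on that kinase.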

[2] = biological target: T2, kinases of the scanMAX Kinase assay panel (Homo sapiens, UniProt P20794); conditions: MAK; 1 uM
T2 construct: purchased DiscoverX Co. (contract measurement) scanMAX Kinase assay panel
T2 sequence (P20794 1-623): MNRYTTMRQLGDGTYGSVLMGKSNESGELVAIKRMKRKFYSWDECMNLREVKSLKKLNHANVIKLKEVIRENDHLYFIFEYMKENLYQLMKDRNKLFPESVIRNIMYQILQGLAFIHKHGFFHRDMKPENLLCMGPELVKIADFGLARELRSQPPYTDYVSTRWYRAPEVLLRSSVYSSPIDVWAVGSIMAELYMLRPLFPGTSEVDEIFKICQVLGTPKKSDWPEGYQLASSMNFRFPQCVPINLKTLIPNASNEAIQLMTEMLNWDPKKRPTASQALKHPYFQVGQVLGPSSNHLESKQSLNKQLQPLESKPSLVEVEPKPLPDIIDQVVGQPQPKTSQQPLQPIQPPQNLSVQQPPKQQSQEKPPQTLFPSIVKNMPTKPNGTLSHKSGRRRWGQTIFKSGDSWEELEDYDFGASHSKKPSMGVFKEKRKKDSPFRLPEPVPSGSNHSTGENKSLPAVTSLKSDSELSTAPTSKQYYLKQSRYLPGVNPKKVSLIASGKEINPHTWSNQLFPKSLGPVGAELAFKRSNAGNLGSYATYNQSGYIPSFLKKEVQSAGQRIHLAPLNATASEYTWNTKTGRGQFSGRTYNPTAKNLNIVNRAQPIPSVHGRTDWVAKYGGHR
Method in brief: as §1

[3] = biological target: T3, kinases of the scanMAX Kinase assay panel (Homo sapiens, UniProt P27037); conditions: ACVR2A; 1 uM
T3 construct: purchased DiscoverX Co. (contract measurement) scanMAX Kinase assay panel
Method in brief: as §1

[4] = biological target: T4, kinases of the scanMAX Kinase assay panel (Homo sapiens, UniProt P42680); conditions: kinase TEC; 1 uM in DMSO
T4 construct: purchased DiscoverX Co. (contract measurement) scanMAX Kinase assay panel
T4 sequence (P42680 1-631): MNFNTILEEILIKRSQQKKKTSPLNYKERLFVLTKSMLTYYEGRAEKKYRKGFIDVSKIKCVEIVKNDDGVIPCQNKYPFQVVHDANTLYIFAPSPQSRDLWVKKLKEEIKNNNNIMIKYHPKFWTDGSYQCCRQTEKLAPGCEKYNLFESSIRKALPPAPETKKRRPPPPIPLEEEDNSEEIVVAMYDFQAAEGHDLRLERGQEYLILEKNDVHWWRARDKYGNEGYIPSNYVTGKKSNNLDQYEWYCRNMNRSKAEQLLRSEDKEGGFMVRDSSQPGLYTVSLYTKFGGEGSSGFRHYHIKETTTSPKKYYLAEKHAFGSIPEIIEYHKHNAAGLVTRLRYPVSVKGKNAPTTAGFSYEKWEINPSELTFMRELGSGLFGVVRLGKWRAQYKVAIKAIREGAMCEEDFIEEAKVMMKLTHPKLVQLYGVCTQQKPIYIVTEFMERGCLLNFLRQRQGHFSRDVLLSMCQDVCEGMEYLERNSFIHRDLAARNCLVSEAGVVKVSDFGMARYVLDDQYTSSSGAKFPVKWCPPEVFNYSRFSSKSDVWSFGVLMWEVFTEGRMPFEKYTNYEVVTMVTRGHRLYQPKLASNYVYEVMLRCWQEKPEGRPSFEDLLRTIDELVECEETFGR
Method in brief: as §1

[5] = biological target: T5, kinases of the scanMAX Kinase assay panel (Homo sapiens, UniProt Q16816); conditions: PHKG1; 1 uM
T5 construct: purchased DiscoverX Co. (contract measurement) scanMAX Kinase assay panel
Method in brief: as §1

[6] = biological target: T6, kinases of the scanMAX Kinase assay panel (Homo sapiens, UniProt Q96L34); conditions: MARK4; 1 uM
T6 construct: purchased DiscoverX Co. (contract measurement) scanMAX Kinase assay panel
T6 sequence (Q96L34 1-752): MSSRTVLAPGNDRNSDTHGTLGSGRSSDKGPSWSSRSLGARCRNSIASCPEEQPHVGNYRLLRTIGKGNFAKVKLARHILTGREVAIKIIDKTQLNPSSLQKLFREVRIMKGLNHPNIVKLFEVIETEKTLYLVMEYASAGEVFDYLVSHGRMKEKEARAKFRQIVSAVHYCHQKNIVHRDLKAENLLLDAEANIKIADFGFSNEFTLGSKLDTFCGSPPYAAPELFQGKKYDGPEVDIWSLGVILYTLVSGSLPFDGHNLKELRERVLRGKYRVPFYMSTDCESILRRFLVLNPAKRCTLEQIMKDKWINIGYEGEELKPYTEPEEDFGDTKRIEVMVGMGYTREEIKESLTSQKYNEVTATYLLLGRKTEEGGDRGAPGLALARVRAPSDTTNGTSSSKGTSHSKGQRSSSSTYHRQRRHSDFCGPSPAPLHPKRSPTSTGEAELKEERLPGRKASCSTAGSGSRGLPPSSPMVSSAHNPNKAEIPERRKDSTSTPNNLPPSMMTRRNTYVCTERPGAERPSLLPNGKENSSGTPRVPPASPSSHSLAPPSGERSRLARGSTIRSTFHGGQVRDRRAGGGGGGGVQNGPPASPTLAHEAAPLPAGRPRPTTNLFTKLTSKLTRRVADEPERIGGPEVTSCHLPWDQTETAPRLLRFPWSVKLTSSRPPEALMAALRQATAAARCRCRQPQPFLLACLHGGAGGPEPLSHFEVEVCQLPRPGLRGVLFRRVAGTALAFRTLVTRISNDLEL
Method in brief: as §1

T3 sequence (P27037 20-513): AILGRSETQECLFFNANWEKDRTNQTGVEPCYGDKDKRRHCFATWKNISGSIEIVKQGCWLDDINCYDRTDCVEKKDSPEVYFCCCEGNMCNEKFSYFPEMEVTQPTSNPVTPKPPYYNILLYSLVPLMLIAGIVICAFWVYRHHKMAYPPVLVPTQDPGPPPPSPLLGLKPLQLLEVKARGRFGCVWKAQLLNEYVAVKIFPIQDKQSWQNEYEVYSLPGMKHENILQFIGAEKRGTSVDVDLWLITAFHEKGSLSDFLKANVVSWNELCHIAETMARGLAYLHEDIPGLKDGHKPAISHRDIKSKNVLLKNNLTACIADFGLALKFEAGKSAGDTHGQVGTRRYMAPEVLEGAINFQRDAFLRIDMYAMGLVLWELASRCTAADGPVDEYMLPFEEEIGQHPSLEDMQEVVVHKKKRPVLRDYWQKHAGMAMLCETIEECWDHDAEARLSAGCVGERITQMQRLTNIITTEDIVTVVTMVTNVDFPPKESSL
T5 sequence (Q16816 whole entry): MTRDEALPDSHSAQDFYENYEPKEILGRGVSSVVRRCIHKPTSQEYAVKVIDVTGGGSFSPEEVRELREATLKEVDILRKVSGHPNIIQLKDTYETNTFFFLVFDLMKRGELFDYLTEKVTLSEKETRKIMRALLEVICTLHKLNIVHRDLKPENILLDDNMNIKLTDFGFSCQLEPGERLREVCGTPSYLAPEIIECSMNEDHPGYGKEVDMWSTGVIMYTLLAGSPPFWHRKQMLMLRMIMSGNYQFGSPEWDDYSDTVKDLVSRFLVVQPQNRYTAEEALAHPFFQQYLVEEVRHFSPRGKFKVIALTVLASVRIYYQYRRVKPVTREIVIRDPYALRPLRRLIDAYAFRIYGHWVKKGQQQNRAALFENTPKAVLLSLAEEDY
T1 sequence (O60331 whole entry): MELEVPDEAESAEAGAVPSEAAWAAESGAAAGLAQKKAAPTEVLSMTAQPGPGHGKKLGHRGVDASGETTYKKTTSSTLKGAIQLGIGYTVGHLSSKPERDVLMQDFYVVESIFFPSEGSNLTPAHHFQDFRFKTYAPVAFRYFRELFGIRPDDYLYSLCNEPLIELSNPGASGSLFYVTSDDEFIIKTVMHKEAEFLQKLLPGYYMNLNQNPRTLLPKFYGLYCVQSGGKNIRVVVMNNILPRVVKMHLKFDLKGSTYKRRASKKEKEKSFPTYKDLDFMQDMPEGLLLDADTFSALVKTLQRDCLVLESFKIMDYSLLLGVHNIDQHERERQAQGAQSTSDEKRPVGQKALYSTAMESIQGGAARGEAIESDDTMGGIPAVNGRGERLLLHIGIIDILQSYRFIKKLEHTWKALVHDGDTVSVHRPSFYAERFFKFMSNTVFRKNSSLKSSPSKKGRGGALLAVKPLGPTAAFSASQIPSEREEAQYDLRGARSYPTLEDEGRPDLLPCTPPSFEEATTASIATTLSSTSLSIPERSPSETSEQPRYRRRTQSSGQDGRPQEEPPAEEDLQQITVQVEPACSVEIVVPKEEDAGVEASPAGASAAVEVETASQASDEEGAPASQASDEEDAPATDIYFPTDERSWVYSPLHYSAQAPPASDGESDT

Row | SMILES | remaining binding at 1 µM [1] | remaining binding at 1 µM [2] | remaining binding at 1 µM [3] | remaining binding at 1 µM [4] | remaining binding at 1 µM [5] | remaining binding at 1 µM [6]
1 | CNc1nc(Nc2ccc(C(=O)N3CCOCC3)cc2OC)nc2[nH]cc(C#N)c12 [Example 1, 2-((2-methoxy-4-(morpholine-4-carbonyl)phenyl)amino)-4-(methylamino)-7H-pyrrolo[2,3-d]pyrimidine-5-carbonitrile] | 1% | 95% | 100% | 100% | 13% | 84%
2 | CC1(Nc2nc(Nc3cnn([C@H]4CCN(C5COC5)C[C@@H]4F)c3Cl)nc3[nH]cc(C#N)c23)CC1 [Example 52, 2-((5-chloro-1-((3S,4S)-3-fluoro-1-(oxetane-3-yl)piperidine-4-yl)-1H-pyrazole-4-yl)amino)((1-methylcyclopropyl)amino)-7H-pyrrolo[2,3-d]pyrimidine-5-carbonitrile] | 0% | 71% | 98% | 24% | 11% | 37%
3 | CCNc1nc(Nc2ccc(C(=O)N3CCC(N4CCOCC4)CC3)cc2OC)nc2[nH]cc(C(F)(F)F)c12 [Example 104, (4-((4-(ethylamino)-5-(trifluoromethyl)-7H-pyrrolo[2,3-d]pyrimidine-2-yl)amino)-3-methoxyphenyl)(4-morpholinopiperidine-1-yl)methanone] | 100% | 100% | 100% | 86% | 1% | 100%
